In US10285972B2, “Trans-2-nonadecyl-4-hydroxymethyl-1,3-dioxolane and producing methodthereof” (Greenyn Biotechnology Co., Ltd, priority 2014, dated 2019):

Legend:
liver = experiment: Organ weights, liver appearance and liver staining (H&E, Surius red) of mice fed 45% high-fat diet; type: in vivo, C57BL/6 mice; details: for Liver weight: 8 weeks
Description: (§1) The 4 weeks-old male C57BL/6 mice were divided into 5 groups and treated with different feeding conditions, wherein the group 1 was the blank control fed with normal diet and water, the group 2 was fed with 45% high-fat diet and water, the group 3 was fed with 45% high-fat diet, water and 10 mg/Kg the compound TNHD, the group 4 was fed with 45% high-fat diet, water and 20 mg/Kg the compound TNHD, and the group 5 was fed with 45% high-fat diet, water and 200 mg/Kg Silymarin. Feeding for 8 weeks, and then all the mice were sacrificed.
The weights of liver, kidney and spleen of the mice in the each group were measured and recorded in table 2. The macroscopic appearance of the liver from the mice of the each group was shown as FIG. 6. Furthermore, the liver collected from the sacrificed mice in each groups was fixed with formalin. After the fixation, the liver tissue of the each group was paraffin-embedded for histology section and stained by H&E and Surius red for analysis.

[1] = test system: fatty liver and obesity animal model prepared by ethanol-containing diet (Lieber-DeCarli); experiment: Fatty liver and obesity animal model prepared by ethanol-containing diet (Lieber-DeCarli); type: in vivo; details: FIGS. 9 to 14
[2] = Body weight and food intake of mice fed 45% high-fat diet for 8 weeks; type: in vivo, C57BL/6 mice; details: for Final wight: mean±SE
Description: as §1
At the end of the experiment, taking photographs of the each group were shown as FIG. 4.
The body weight and food intake in the each group were recorded in the table 1, wherein the data is expressed as the mean±SE.

CCCCCCCCCCCCCCCCCCC[C@@H]1OC[C@@H](CO)O1 (relative stereo) [TNHD, trans-2-nonadecyl-4-hydroxymethyl-1,3-dioxolane]
Lipid accumulation in the liver (H&E and Surius red staining) (liver; 45% high-fat diet mice, FIGS. 7 and 8): inhibit the lipid accumulation in the liver effectively
Liver weight (liver; group 3: 45% high-fat diet + 10 mg/Kg TNHD): 5.23 ± 0.84 g
Macroscopic appearance of the liver (liver; group 3 or group 4 (10 or 20 mg/Kg), 45% high-fat diet, FIG. 6): the liver shows the red color and has smooth surface
Liver weight (liver; group 4: 45% high-fat diet + 20 mg/Kg TNHD): 5.63 ± 0.61 g
Effect on obesity, fatty liver or liver damage caused by alcohol [1]: effective to treat or/and prevent obesity, fatty liver or liver damage caused by alcohol
Effect on body weight, high dose compared with low dose ([2]; 45% high-fat diet mice, 20 mg/Kg vs 10 mg/Kg): high dose is more effective
Effect on body weight increase of obesity mouse ([2]; 45% high-fat diet mice, 10 or 20 mg/Kg, 8 weeks): prevent and inhibit the body weight of obesity mouse to increase
Effect on weight loss compared with Silymarin ([2]; 45% high-fat diet mice, Silymarin 200 mg/Kg): more effective to weight loss than Silymarin
Final wight ([2]; group 3: 45% high-fat diet + 10 mg/Kg TNHD, 8 weeks): 29.8 ± 2.0 g
Final wight ([2]; group 4: 45% high-fat diet + 20 mg/Kg TNHD, 8 weeks): 28.1 ± 1.6 g
